In patent US20230057984A1, “NORMALIZATION OF CULTURE OF CORNEAL ENDOTHELIAL CELLS” (KYOTO PREFECTURAL PUBLIC UNIVERSITY CORPORATION, priority 2011, published 2023):

Tests used:
[1] = system: Cynomolgus monkey corneal endothelial cells; test: PCR of Na+/K+-ATPase and ZO-1 mRNA in monkey corneal endothelial cells (Example 3); assay type: cell-based; conditions: monkey CEC treated with SB431542 vs fibroblast phenotype control
Experimental: Method of culturing and the like was conducted in a similar manner as the Comparative Examples. In particular, materials similar to those in Example 2 were used. • SB431542: this was obtained from TOCRIS (catalog number: 1614). • Antibodies to Na^+/K^+-ATPase: those obtained from MILLIPORE (catalog number: 05-369) were used. • Antibodies to ZO-1: mice, those obtained from INVITROGEN (catalog number: 339100) were used; and rabbits, those obtained from ZYMED LABORATORIES (catalog number: 61-7300) were used. • Antibodies to GAPDH: those obtained from ABCAM (catalog number: ab36840) were used. • Immunostaining and the like: cells cultured in a similar manner to Example 2 were fixed and immunostaining was performed on Na^+/K^+-ATPase and ZO-1, followed by taking an image using a fluorescence microscope. • Western blot method: similar to Example 1, a Western blot method was performed on the Na^+/K^+-ATPase, ZO-1, and GAPDH. • Realtime PCR method: in addition, PCR was performed for Na^+/K^+-ATPase, ZO-1, and GAPDH in the following method. The primers were purchased from an oligonucleotide synthesizing company, INVITROGEN, and desalted primer were used. […] Amplified DNA fragments were electrophoresed in a 1.5% agarose gel, and were detected by ethidium bromide staining.

[2] = system: Cynomolgus monkey corneal endothelial cells; test: Western blot of Na+/K+-ATPase and ZO-1 in monkey corneal endothelial cells (Example 3); assay type: cell-based; conditions: monkey CEC treated with SB431542 vs fibroblast phenotype control
Experimental: Next, reaction was allowed for 1 hour at a room temperature with ALEXA FLUOR 488 (INVITROGEN (catalog number: A21206)) and ALEXA FLUOR 594 (INVITROGEN (catalog number: A21203)), diluted with TBS-T by 1,000 fold. After washing with PBS, the sample was encapsulated with VECTASHIELD WITH DAPI (VECTOR LABORATORIES (catalog number: 94010)) onto a slide, followed by observation through confocal microscope (Leica). • Western blot technique: protein extracted by RIPA buffer was electrophoresed with 7.5% polyacrylamide. The separated protein was transferred to a PVDF film (PALL LIFE SCIENCE (catalog number: EH-2222)). […] After washing, bands were detected using an ECL-ADVAVCE Western Blotting Detection Kit (GE healthcare Japan (catalog number: RPN2135V)). […]
P-40 (Nacalai Tesque, catalog number: 23640-94), 0.5% sodium deoxycholate (Nacalai Tesque, catalog number:10712-12), and 0.1% SDS (Nacalai Tesque, catalog number:31607-65)). Thus obtained cell lysate was centrifuged (15,000 rpm, 10 minutes), the supernatant thereof was collected, and the protein was quantitated using a BCA PROTEIN ASSAY KIT (PIERCE, catalog number: 23227). […]

`NC(=O)c1ccc(-c2nc(-c3ccc4c(c3)OCO4)c(-c3ccccn3)[nH]2)cc1` [SB431542] was tested, and the “expression of Na+/K+-ATPase and ZO-1, mRNA level (PCR)” value [1] was “strongly enhanced” and the “expression of Na+/K+-ATPase and ZO-1, protein level (Western blot)” value [2] was “strongly enhanced”.
